Experimental data: the kinase profiling compilation of Christmann-Franck et al. (2016)

Columns and labels:
Test in all cases: Caliper, Mobility shift assay off-chip
PAK3 (human) = PAK3 (human) (UniProt O75914)
PTK6 (human) = PTK6 (human) (UniProt Q13882)
JAK3 JH1 JH2 (human) = JAK3 JH1 JH2 (human) (UniProt P52333)
CAMK2D (human) = CAMK2D (human) (UniProt Q13557)
MUSK (human) = MUSK (human) (UniProt O15146)
SRPK2 (human) = SRPK2 (human) (UniProt P78362)
STK11 (human) = STK11 (human) (UniProt Q15831)
PRKX (human) = PRKX (human) (UniProt P51817)
DDR2 (human) = DDR2 (human) (UniProt Q16832)
LYN (human) = LYN (human) (UniProt P07948)
BRSK1 (human) = BRSK1 (human) (UniProt Q8TDC3)
TAOK3 (human) = TAOK3 (human) (UniProt Q9H2K8)
YES1 (human) = YES1 (human) (UniProt P07947)
GCK (human) = GCK (human) (UniProt Q12851)
CSNK1D (human) = CSNK1D (human) (UniProt P48730)
CSF1R (human) = CSF1R (human) (UniProt P07333)
[1] = system: KIT (human), P10721 [V654A]
PRKCQ (human) = PRKCQ (human) (UniProt Q04759)
LCK (human) = LCK (human) (UniProt P06239)
ITK (human) = ITK (human) (UniProt Q08881)
TSSK2 (human) = TSSK2 (human) (UniProt Q96PF2)
ERBB4 (human) = ERBB4 (human) (UniProt Q15303)
HCK (human) = HCK (human) (UniProt P08631)
[2] = system: KIT (human), P10721 [V560G]
STK33 (human) = STK33 (human) (UniProt Q9BYT3)
HIPK3 (human) = HIPK3 (human) (UniProt Q9H422)
SRPK1 (human) = SRPK1 (human) (UniProt Q96SB4)
CHEK2 (human) = CHEK2 (human) (UniProt O96017)
VRK2 (human) = VRK2 (human) (UniProt Q86Y07)
CSNK1G1 (human) = CSNK1G1 (human) (UniProt Q9HCP0)
FRK (human) = FRK (human) (UniProt P42685)
RPS6KA6 KD1 KD2 (human) = RPS6KA6 KD1 KD2 (human) (UniProt Q9UK32)
[3] = system: PDGFRA (human), P16234 [V561D]
SGK2 (human) = SGK2 (human) (UniProt Q9HBY8)
[4] = system: KIT (human), P10721 [D816V]
CHUK (human) = CHUK (human) (UniProt O15111)
[5] = system: EGFR (human), P00533 [T790M/L858R]
CDK3 CCNE1 (human) = CDK3 CCNE1 (human) (UniProt P24864+Q00526)
SRPK3 (human) = SRPK3 (human) (UniProt Q9UPE1)
LIMK1 (human) = LIMK1 (human) (UniProt P53667)
INSR (human) = INSR (human) (UniProt P06213)

Sequence of CHUK (human) (O15111 whole entry, looked up): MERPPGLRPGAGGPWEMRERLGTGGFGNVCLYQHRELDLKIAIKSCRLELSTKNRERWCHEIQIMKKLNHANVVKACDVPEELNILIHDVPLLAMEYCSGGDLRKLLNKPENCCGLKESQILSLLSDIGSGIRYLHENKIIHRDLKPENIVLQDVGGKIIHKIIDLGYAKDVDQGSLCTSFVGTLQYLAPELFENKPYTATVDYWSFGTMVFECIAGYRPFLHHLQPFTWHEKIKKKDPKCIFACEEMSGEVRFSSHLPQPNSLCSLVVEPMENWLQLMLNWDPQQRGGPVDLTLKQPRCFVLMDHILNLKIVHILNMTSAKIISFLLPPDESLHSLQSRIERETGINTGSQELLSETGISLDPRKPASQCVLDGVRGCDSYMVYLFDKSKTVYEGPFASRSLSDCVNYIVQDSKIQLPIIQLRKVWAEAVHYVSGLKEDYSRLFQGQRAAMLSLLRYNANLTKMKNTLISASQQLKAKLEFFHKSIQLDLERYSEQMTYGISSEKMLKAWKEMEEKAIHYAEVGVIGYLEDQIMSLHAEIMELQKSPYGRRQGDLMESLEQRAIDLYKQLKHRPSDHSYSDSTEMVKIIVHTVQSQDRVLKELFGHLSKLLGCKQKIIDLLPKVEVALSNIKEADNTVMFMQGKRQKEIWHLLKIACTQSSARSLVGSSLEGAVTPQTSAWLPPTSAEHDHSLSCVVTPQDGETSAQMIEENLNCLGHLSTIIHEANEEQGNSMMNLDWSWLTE
Sequence of LYN (human) (P07948 whole entry, looked up): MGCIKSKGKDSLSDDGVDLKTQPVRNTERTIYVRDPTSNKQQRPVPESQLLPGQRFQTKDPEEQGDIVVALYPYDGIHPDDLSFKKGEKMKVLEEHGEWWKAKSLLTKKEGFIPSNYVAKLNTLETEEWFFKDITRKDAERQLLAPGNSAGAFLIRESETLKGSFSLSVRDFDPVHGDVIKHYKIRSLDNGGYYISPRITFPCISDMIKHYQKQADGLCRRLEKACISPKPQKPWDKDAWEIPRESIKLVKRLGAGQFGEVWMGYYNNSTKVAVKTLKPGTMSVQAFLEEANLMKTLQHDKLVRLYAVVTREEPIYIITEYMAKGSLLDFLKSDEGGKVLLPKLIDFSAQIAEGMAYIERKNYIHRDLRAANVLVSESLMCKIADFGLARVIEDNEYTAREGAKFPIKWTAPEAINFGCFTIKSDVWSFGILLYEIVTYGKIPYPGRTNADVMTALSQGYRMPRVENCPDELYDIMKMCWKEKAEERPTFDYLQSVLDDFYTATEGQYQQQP
Sequence of DDR2 (human) (Q16832 whole entry, looked up): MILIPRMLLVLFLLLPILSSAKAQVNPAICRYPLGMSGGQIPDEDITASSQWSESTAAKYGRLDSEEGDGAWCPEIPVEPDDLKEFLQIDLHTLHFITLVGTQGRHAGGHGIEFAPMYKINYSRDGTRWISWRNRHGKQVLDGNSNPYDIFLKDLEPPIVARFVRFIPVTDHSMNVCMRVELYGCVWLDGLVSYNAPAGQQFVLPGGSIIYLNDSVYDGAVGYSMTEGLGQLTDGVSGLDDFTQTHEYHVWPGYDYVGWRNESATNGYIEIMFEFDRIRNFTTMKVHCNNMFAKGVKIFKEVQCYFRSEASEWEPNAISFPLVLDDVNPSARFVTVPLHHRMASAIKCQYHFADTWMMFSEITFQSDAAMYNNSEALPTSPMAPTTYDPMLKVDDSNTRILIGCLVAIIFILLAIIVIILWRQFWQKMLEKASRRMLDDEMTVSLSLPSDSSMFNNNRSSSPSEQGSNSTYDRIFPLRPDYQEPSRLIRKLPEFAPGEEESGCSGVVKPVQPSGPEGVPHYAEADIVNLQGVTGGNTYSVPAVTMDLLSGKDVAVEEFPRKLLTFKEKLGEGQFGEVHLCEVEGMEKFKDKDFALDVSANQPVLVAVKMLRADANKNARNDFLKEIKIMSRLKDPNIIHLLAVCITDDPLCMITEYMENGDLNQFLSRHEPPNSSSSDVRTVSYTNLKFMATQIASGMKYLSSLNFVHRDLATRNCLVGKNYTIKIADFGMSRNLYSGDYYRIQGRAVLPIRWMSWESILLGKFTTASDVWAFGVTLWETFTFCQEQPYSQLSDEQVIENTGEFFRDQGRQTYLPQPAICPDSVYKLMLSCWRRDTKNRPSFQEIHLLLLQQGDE
Sequence of LCK (human) (P06239 whole entry, looked up): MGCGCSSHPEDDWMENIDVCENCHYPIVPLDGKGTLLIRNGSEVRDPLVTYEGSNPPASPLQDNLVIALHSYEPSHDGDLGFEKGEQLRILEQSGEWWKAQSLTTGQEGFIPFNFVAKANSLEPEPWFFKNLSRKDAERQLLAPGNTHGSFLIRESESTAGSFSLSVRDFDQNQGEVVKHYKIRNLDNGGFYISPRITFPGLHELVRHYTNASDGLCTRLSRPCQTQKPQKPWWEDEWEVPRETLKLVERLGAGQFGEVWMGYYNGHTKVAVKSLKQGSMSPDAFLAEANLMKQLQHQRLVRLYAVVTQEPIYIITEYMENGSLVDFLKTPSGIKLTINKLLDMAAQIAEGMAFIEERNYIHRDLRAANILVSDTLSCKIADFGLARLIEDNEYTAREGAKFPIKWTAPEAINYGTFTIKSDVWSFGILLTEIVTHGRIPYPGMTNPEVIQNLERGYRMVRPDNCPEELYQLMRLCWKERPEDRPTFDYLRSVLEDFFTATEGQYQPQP
Sequence of MUSK (human) (O15146 whole entry, looked up): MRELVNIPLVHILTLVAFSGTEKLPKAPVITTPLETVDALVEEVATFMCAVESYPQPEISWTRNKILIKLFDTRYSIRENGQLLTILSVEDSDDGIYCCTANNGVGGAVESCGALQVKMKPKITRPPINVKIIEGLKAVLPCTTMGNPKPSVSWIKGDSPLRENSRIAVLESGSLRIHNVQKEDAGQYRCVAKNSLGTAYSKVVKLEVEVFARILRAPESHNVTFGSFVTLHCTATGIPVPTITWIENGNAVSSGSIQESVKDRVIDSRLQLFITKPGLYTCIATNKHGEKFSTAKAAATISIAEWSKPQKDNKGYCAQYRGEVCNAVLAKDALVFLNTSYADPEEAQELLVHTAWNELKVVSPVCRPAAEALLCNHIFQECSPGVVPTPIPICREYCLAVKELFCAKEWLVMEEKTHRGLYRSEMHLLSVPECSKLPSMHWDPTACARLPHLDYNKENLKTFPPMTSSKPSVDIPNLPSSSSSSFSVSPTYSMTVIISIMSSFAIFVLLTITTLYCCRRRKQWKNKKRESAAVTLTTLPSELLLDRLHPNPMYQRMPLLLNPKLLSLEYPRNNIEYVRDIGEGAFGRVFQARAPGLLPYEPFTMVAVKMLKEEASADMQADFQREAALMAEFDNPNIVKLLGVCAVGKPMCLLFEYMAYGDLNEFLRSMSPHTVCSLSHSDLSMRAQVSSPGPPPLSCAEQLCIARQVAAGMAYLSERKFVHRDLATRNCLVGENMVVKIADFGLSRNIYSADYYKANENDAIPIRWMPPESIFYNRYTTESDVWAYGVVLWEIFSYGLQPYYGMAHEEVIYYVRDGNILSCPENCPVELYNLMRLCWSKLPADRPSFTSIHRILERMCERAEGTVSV
Sequence of SRPK2 (human) (P78362 whole entry, looked up): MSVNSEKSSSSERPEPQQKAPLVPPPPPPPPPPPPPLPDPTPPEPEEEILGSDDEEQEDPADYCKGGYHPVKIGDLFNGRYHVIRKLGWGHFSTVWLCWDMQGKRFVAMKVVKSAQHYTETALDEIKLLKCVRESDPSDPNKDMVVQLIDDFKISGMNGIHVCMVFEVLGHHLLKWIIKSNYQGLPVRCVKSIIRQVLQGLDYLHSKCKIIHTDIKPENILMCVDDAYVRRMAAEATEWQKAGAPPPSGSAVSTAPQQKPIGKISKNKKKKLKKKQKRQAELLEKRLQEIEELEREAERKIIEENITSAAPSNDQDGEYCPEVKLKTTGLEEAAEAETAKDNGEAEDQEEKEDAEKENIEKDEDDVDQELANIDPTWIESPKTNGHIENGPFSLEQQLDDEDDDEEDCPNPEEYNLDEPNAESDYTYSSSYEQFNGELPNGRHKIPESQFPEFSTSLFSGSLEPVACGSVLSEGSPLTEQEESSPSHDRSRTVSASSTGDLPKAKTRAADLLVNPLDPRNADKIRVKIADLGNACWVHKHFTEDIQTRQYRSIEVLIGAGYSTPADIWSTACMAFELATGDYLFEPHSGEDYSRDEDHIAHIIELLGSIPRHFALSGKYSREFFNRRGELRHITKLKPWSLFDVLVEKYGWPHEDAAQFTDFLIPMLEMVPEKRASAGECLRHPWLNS
Sequence of PTK6 (human) (Q13882 whole entry, looked up): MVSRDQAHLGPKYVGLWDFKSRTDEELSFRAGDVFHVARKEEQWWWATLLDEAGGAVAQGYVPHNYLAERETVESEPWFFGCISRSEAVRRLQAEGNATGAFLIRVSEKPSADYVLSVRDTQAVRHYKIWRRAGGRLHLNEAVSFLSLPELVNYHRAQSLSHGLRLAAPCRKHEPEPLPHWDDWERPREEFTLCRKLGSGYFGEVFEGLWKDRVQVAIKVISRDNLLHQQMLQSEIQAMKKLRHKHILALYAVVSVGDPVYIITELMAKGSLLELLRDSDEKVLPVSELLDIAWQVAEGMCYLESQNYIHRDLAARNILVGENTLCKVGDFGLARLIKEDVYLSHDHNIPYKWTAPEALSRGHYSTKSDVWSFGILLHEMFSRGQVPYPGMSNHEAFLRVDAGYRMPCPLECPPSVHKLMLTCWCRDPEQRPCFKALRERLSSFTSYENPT
Sequence of TSSK2 (human) (Q96PF2 whole entry, looked up): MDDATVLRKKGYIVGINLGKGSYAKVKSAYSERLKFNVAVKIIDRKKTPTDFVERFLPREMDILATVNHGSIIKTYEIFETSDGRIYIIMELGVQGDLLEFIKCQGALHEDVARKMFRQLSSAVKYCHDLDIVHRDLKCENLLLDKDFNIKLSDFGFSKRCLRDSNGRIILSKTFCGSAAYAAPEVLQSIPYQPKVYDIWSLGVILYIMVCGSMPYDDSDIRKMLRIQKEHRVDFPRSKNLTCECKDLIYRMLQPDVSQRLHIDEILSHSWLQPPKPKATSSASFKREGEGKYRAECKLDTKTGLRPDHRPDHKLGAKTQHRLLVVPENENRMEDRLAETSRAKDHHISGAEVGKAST

SMILES: O=C(N[C@@H](COc1ccc2[nH]c(=O)[nH]c2c1)c1ccccc1)c1cccn(Cc2ccc(F)c(F)c2)c1=O
- residual activity (PAK3 (human); compound 10.0 µM): 88%
- residual activity (PTK6 (human); compound 10.0 µM): 116%
- residual activity (JAK3 JH1 JH2 (human); compound 10.0 µM): 98%
- residual activity (CAMK2D (human); compound 10.0 µM): 92%
- residual activity (MUSK (human); compound 10.0 µM): 98%
- residual activity (SRPK2 (human); compound 10.0 µM): 102%
- residual activity (STK11 (human); compound 10.0 µM): 111%
- residual activity (PRKX (human); compound 10.0 µM): 107%
- residual activity (DDR2 (human); compound 10.0 µM): 118%
- residual activity (LYN (human); compound 10.0 µM): 115%
- residual activity (BRSK1 (human); compound 10.0 µM): 109%
- residual activity (TAOK3 (human); compound 10.0 µM): 98%
- residual activity (YES1 (human); compound 10.0 µM): 91%
- residual activity (GCK (human); compound 10.0 µM): 107%
- residual activity (CSNK1D (human); compound 10.0 µM): 110%
- residual activity (CSF1R (human); compound 10.0 µM): 107%
- residual activity ([1]; compound 10.0 µM): 102%
- residual activity (PRKCQ (human); compound 10.0 µM): 108%
- residual activity (LCK (human); compound 10.0 µM): 108%
- residual activity (ITK (human); compound 10.0 µM): 108%
- residual activity (TSSK2 (human); compound 10.0 µM): 115%
- residual activity (ERBB4 (human); compound 10.0 µM): 120%
- residual activity (HCK (human); compound 10.0 µM): 110%
- residual activity ([2]; compound 10.0 µM): 99%
- residual activity (STK33 (human); compound 10.0 µM): 104%
- residual activity (HIPK3 (human); compound 10.0 µM): 110%
- residual activity (SRPK1 (human); compound 10.0 µM): 104%
- residual activity (CHEK2 (human); compound 10.0 µM): 132%
- residual activity (VRK2 (human); compound 10.0 µM): 99%
- residual activity (CSNK1G1 (human); compound 10.0 µM): 102%
- residual activity (FRK (human); compound 10.0 µM): 96%
- residual activity (RPS6KA6 KD1 KD2 (human); compound 10.0 µM): 113%
- residual activity ([3]; compound 10.0 µM): 112%
- residual activity (SGK2 (human); compound 10.0 µM): 97%
- residual activity ([4]; compound 10.0 µM): 111%
- residual activity (CHUK (human); compound 10.0 µM): 125%
- residual activity ([5]; compound 10.0 µM): 99%
- residual activity (CDK3 CCNE1 (human); compound 10.0 µM): 113%
- residual activity (SRPK3 (human); compound 10.0 µM): 114%
- residual activity (LIMK1 (human); compound 10.0 µM): 97%
- residual activity (INSR (human); compound 10.0 µM): 98%

SMILES: Cc1n[nH]c2c1c(=O)n(CCCN)c1ccc(Cl)cc21
- residual activity (PTK6 (human); compound 1.0 µM): 93%
- residual activity (JAK3 JH1 JH2 (human); compound 1.0 µM): 100%
- residual activity (MUSK (human); compound 1.0 µM): 91%
- residual activity (SRPK2 (human); compound 1.0 µM): 108%
- residual activity (STK11 (human); compound 1.0 µM): 104%
- residual activity (DDR2 (human); compound 1.0 µM): 107%
- residual activity (LYN (human); compound 1.0 µM): 99%
- residual activity (YES1 (human); compound 1.0 µM): 77%
- residual activity (CSF1R (human); compound 1.0 µM): 55%
- residual activity (PRKCQ (human); compound 1.0 µM): 98%
- residual activity (LCK (human); compound 1.0 µM): 82%
- residual activity (ITK (human); compound 1.0 µM): 127%
- residual activity (TSSK2 (human); compound 1.0 µM): 56%
- residual activity (ERBB4 (human); compound 1.0 µM): 103%
- residual activity (HCK (human); compound 1.0 µM): 148%
- residual activity (SRPK1 (human); compound 1.0 µM): 106%
- residual activity (CHEK2 (human); compound 1.0 µM): 5%
- residual activity (SGK2 (human); compound 1.0 µM): 70%
- residual activity ([4]; compound 1.0 µM): 107%
- residual activity (CHUK (human); compound 1.0 µM): 96%
- residual activity (CDK3 CCNE1 (human); compound 1.0 µM): 96%
- residual activity (SRPK3 (human); compound 1.0 µM): 90%
- residual activity (LIMK1 (human); compound 1.0 µM): 120%
- residual activity (INSR (human); compound 1.0 µM): 103%

SMILES: O=C(NCCCNc1nc(Nc2cccc(NC(=O)N3CCCC3)c2)ncc1I)c1cccs1
- residual activity (PAK3 (human); compound 1.0 µM): 106%
- residual activity (PTK6 (human); compound 1.0 µM): 97%
- residual activity (JAK3 JH1 JH2 (human); compound 1.0 µM): 2%
- residual activity (CAMK2D (human); compound 1.0 µM): 3%
- residual activity (MUSK (human); compound 1.0 µM): 89%
- residual activity (SRPK2 (human); compound 1.0 µM): 99%
- residual activity (STK11 (human); compound 1.0 µM): 108%
- residual activity (PRKX (human); compound 1.0 µM): 70%
- residual activity (DDR2 (human); compound 1.0 µM): 113%
- residual activity (LYN (human); compound 1.0 µM): 96%
- residual activity (BRSK1 (human); compound 1.0 µM): 76%
- residual activity (TAOK3 (human); compound 1.0 µM): 10%
- residual activity (YES1 (human); compound 1.0 µM): 110%
- residual activity (GCK (human); compound 1.0 µM): 13%
- residual activity (CSNK1D (human); compound 1.0 µM): 94%
- residual activity (CSF1R (human); compound 1.0 µM): 86%
- residual activity ([1]; compound 1.0 µM): 73%
- residual activity (PRKCQ (human); compound 1.0 µM): 103%
- residual activity (LCK (human); compound 1.0 µM): 76%
- residual activity (ITK (human); compound 1.0 µM): 85%
- residual activity (TSSK2 (human); compound 1.0 µM): 52%
- residual activity (ERBB4 (human); compound 1.0 µM): 127%
- residual activity (HCK (human); compound 1.0 µM): 99%
- residual activity ([2]; compound 1.0 µM): 15%
- residual activity (STK33 (human); compound 1.0 µM): 82%
- residual activity (HIPK3 (human); compound 1.0 µM): 107%
- residual activity (SRPK1 (human); compound 1.0 µM): 100%
- residual activity (CHEK2 (human); compound 1.0 µM): 60%
- residual activity (VRK2 (human); compound 1.0 µM): 117%
- residual activity (CSNK1G1 (human); compound 1.0 µM): 112%
- residual activity (FRK (human); compound 1.0 µM): 93%
- residual activity (RPS6KA6 KD1 KD2 (human); compound 1.0 µM): 103%
- residual activity ([3]; compound 1.0 µM): 14%
- residual activity (SGK2 (human); compound 1.0 µM): 94%
- residual activity ([4]; compound 1.0 µM): 76%
- residual activity (CHUK (human); compound 1.0 µM): 120%
- residual activity ([5]; compound 1.0 µM): 103%
- residual activity (CDK3 CCNE1 (human); compound 1.0 µM): 89%
- residual activity (SRPK3 (human); compound 1.0 µM): 113%
- residual activity (LIMK1 (human); compound 1.0 µM): 34%
- residual activity (INSR (human); compound 1.0 µM): 91%
